Assay type in all cases: cell-based
One test relates to H358. Briefly: cell viability of H358 cells, 1 and 10 uM. The following applies: Homo sapiens, NCI-H358. On the procedure: [Worded in the source for another cell line; this cell line is reported under the same test.] (§1) Sorafenib (Nexavar), erlotinib (Tarceva) and Paclitaxel were kindly provided by Bayer Pharmaceuticals (Pittsburgh, Pa., USA) and Roche Pharmaceuticals (Basel, Switzerland) respectively. Okadaic acid (OA) was purchased from Cayman Chemical (Ann Arbor, Mich., USA) and z-VAD-fmk was obtained from Sigma (St. Louis, Mo., USA). For in vitro studies, drugs at various concentrations were dissolved in dimethyl sulfoxide (DMSO), and added to cells in Dulbecco's modified Eagle's medium (DMEM) or Roswell Park Memorial Institute (RPMI) containing 5% fetal bovine serum (FBS).
(§2) The Sk-Hep1, PLC/PRF/5 (PLC) and Hep3B cell lines were obtained from American Type Culture Collection (ATCC; Manassas, Va., USA). The Huh-7 HCC cell line was obtained from the Health Science Research Resources Bank (HSRRB; Osaka, Japan; JCRB0403). Cells were maintained in DMEM supplemented with 10% FBS in a 37° C. humidified incubator in an atmosphere of 5% CO^2 in air.

For a further test, the system named is NCI-H226. In words: cell viability of NCI-H226 cells, 1 and 10 uM. The following applies: Homo sapiens. On the procedure:
[Worded in the source for another cell line; this cell line is reported under the same test.] as §1, §2

The subject of a further test is A549. In words: cell viability of A549 cells, 1 and 10 uM. The following applies: Homo sapiens. On the procedure:
[Worded in the source for another cell line; this cell line is reported under the same test.] as §1, §2

For the next test, the system named is NCI-1703. In words: cell viability of NCI-1703 cells, 1 and 10 uM of each erlotinib derivative, and IC50. The following applies: Homo sapiens; for IC50: cell viability. As for the experimental part: [Worded in the source for another cell line; this cell line is reported under the same test.] as §1, §2

Usually viability stands for a read-out of living cells in per cent, often relative to untreated cells. As usually defined, the IC50 is the point on the concentration scale where inhibition reaches its midpoint. `COC(=O)c1ccc2nc(Nc3ccc(OC(F)(F)F)cc3)c(Nc3ccc(OC(F)(F)F)cc3)nc2c1` [TD94, methyl 2,3-bis((4-(trifluoromethoxy)phenyl)amino)quinoxaline-6-carboxylate]: the viability at 1 µM in the test with H358 came out at 13 ± 0.2%; in the test with NCI-H226, 32.1 ± 2.7%; in the test with A549 it was 49 ± 6.5%; in the test on NCI-1703, 29.9 ± 6.8%. Further, the viability at 10 µM in the test on H358 is 15.7 ± 5.9%; in the test with NCI-H226, 8 ± 0.1%; with A549, 10.8 ± 0.9%; in the test with NCI-1703, 19.5 ± 1.1%. This compound also had an IC50 in the test with NCI-1703 of 100 nM.
For `O=[N+]([O-])c1ccc2nc(Nc3ccc(F)cc3)c(Nc3ccc(F)cc3)nc2c1` [TD620, N^2,N^3-bis(4-fluorophenyl)-6-nitroquinoxaline-2,3-diamine], the viability at 1 µM is 24.2 ± 1.4% in the test with H358, 132 ± 5% in the test with NCI-H226, 48.7 ± 8.4% in the test with A549 and 26.2 ± 0.6% in the test with NCI-1703. The viability at 10 µM was 12.6 ± 0.7% with H358, 17.9 ± 0.6% in the test on NCI-H226, 7.8 ± 0.4% in the test with A549 and 21 ± 1.7% with NCI-1703. Further, in the test on NCI-1703, half-maximal inhibition (IC50) required 300 nM.
Turning to `O=[N+]([O-])c1ccc2nc(Nc3ccc(Cl)c(F)c3)c(Nc3ccc(Cl)c(F)c3)nc2c1` [TD624, N^2,N^3-bis(4-chloro-3-fluorophenyl)-6-nitroquinoxaline-2,3-diamine], the viability at 1 µM was 11.9 ± 1% in the test on H358, 15.7 ± 0.8% in the test with NCI-H226, 14.3 ± 3.6% in the test with A549 and 90.8 ± 4.8% in the test on NCI-1703.
In the case of `C#Cc1cccc(Nc2nc3cc([N+](=O)[O-])ccc3nc2Nc2ccc(O)cc2C)c1` [TD625, 4-(2-(3-ethynylphenylamino)-7-nitroquinoxalin-3-ylamino)-3-methylphenol], the viability at 1 µM in the test with H358 was 92.6 ± 7.4%; in the test with NCI-H226 it was 115 ± 7.2%; with A549, 73.7 ± 3%; in the test with NCI-1703 it was 224 ± 7%.
On the same counts, the results for `COc1ccc(Nc2nc3ccc([N+](=O)[O-])cc3nc2Nc2ccc(C(F)(F)F)cc2)cc1` [TD626, N^3-(4-(trifluoromethyl)phenyl)-N^2-(4-methoxyphenyl)-6-nitroquinoxaline-2,3-diamine] are 24.3 ± 3.6%, 39 ± 2.2%, 40.4 ± 0.8% and 111 ± 1.3%.
As to `Cc1cc(Nc2nc3ccc([N+](=O)[O-])cc3nc2Nc2ccc(O)cc2)n[nH]1` [TD628, 4-(2-(5-methyl-1H-pyrazol-3-ylamino)-6-nitroquinoxalin-3-ylamino)phenol], the viability at 1 µM in the test on H358 is 140 ± 7.3%; in the test on NCI-H226 it was 152 ± 1.7%; in the test with NCI-1703 it was 147 ± 4.5%.
With `NS(=O)(=O)c1ccc(Nc2nc3ccc([N+](=O)[O-])cc3nc2Nc2ccc(S(N)(=O)=O)cc2)cc1` [TD629, N^2,N^3-bis(4-phenylsulfonamide)-6-nitroquinoxaline-2,3-diamine], the viability at 1 µM in the test with H358 is 113 ± 3.6%; in the test with NCI-H226 it was 140 ± 1.6%; in the test on A549, 118 ± 1.2%; with NCI-1703 it was 132.8 ± 1%.
Consider `COc1ccc(Nc2nc3ccc([N+](=O)[O-])cc3nc2Nc2ccc(F)cc2)cc1` [TD631, N^3-(4-fluorophenyl)-N^2-(4-methoxyphenyl)-6-nitroquinoxaline-2,3-diamine], for which the viability at 1 µM with H358 came to 40.4 ± 1.9%; in the test with NCI-H226, 35.8 ± 6.9%; in the test on A549 it was 58.9 ± 3.1%; with NCI-1703 it was 42.5 ± 2.8%.

For the origin of these results see patent publication US10189795B2, “Aryl amine substituted quinoxaline used as anticancer drugs” (priority 2014, dated 2019).
